# Target: T1, human FOXO1 (constitutively active form Thr24Ala, Ser256Ala, Ser319Ala) (Homo sapiens, UniProt Q12778, S256A/S319A/T24A)
# T1 construct: expressed in transfected cells; host or cells: HEK293 cells transfected with pcDNA3.1 plasmid
# Assay: FOXO1 inhibitor activity assay: cell-based transcriptional (luciferase) reporter assay in HEK293 cells
# Details: HEK293 cells transfected with insulin response element firefly luciferase reporter, FOXO1 and Renilla luciferase; 10-point dose response 50 μM to 2.5 nM; 24 hours
# Experimental: The inhibitory activities of compounds on FOXO1 were determined by a cell-based transcriptional reporter assay. HEK293 cells were plated onto either 384-well poly-D-lysine coated plates (at 7500 cells per well) or 96-well plates (at 20000 cells per well) in low glucose Eagle's Minimum Essential Medium (EMEM) containing 1% fetal bovine serum, and incubated overnight at 37° C. and 5% CO2. […] Duplicate wells were included for each treatment condition. Cells were incubated for 24 hours at 37° C. and 5% CO2. Luciferase activities in each well were measured using Dual-Glog Luciferase Assay System (Promega) according to manufacturer's protocol and an Envision plate reader suitable for luminescence detection. Firefly luciferase activity was divided by Renilla luciferase activity to calculate a ratio for each well. The ratio in wells containing cells transfected with all 3 plasmids listed above and receiving only DMSO without compound addition was set to 100%. The ratio in wells containing cells transfected with plasmid (1), plasmid (3), and pcDNA3.1 containing the open reading frame of red fluorescent protein (instead of human FOXO1) and treated with DMSO was set to 0%. The ratio in each well receiving compound treatment was normalized and expressed as a percentage. Data were fit by 4-parameter logistic regression to determine IC50 and maximal inhibition values. Each compound was tested in a minimum of 2 independent experiments.
# T1 sequence (Q12778 whole entry T24A/S256A/S319A): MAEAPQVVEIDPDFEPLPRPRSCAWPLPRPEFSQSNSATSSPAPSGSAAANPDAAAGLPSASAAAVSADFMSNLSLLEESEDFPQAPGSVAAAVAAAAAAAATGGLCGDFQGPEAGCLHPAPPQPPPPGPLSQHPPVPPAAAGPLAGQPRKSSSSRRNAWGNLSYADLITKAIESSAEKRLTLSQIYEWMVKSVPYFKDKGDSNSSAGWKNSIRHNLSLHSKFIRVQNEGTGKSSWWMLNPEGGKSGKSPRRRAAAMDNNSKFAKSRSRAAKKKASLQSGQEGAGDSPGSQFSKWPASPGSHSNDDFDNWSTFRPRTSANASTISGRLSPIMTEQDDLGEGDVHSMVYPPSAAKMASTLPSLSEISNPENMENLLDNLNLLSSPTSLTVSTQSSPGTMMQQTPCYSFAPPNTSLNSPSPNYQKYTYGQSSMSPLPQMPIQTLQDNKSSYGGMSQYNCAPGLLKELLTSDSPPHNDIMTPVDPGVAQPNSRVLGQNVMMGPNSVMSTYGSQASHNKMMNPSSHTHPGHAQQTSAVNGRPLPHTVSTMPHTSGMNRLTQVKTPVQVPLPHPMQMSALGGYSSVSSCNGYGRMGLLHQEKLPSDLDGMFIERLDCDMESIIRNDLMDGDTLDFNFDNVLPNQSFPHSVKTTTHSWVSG
row,IC50 [nM],SMILES
1,> 1000,"CCOC(=O)COc1ccc(C(=O)Nc2cc(-c3nc4ccccc4[nH]3)[nH]n2)cc1Cl [Compound A-57, ethyl 2-[4-[[5-(1H-benzimidazol-2-yl)-1H-pyrazol-3-yl]carbamoyl]-2-chloro-phenoxy]acetate]"
2,< 100,"COCCCOc1ccc(C(=O)Nc2cc(-c3nc4cc(OC)ccc4[nH]3)[nH]n2)cc1Cl [Compound A-58, 3-chloro-N-[5-(5-methoxy-1H-benzimidazol-2-yl)-1H-pyrazol-3-yl]-4-(3-methoxypropoxy)benzamide]"
3,300 to 1000,"CC1(O)CCCN(c2ccc(C(=O)Nc3cc(-c4nc5ccccc5[nH]4)[nH]n3)cn2)C1 (stereo not drawn) [Compound A-59, N-[5-(1H-benzimidazol-2-yl)-1H-pyrazol-3-yl]-6-(3-hydroxy-3-methyl-1-piperidyl)pyridine-3-carboxamide]"
4,> 1000,"O=C(Nc1cc(-c2nc3ccccc3[nH]2)[nH]n1)c1ccc(N2C[C@H](O)[C@@H](O)C2)nc1 [Compound A-60, N-[5-(1H-benzimidazol-2-yl)-1H-pyrazol-3-yl]-6-[(3S,4S)-3,4-dihydroxy-pyrrolidin-1-yl]pyridine-3-carboxamide]"
5,100 to 300,"CCOCCNc1ccc(C(=O)Nc2cc(-c3nc4ccccc4[nH]3)[nH]n2)cn1 [Compound A-61, N-[5-(1H-benzimidazol-2-yl)-1H-pyrazol-3-yl]-6-(2-ethoxyethylamino)-pyridine-3-carboxamide]"
6,> 1000,"O=C(O)COc1ccc(C(=O)Nc2cc(-c3nc4ccccc4[nH]3)[nH]n2)cn1 [Compound A-62, 2-[[5-[[5-(1H-benzimidazol-2-yl)-1H-pyrazol-3-yl]carbamoyl]-2-pyridyl]-oxy]acetic acid]"
7,> 1000,"C[C@H](CO)Nc1ccc(C(=O)Nc2cc(-c3nc4ccccc4[nH]3)[nH]n2)cn1 [Compound A-63, N-[5-(1H-benzimidazol-2-yl)-1H-pyrazol-3-yl]-6-[[(1R)-2-hydroxy-1-methyl-ethyl]amino]pyridine-3-carboxamide]"
8,> 1000,"O=C(Nc1cc(-c2nc3ccccc3[nH]2)[nH]n1)c1ccc(N2CC(O)C2)nc1 [Compound A-64, N-[5-(1H-benzimidazol-2-yl)-1H-pyrazol-3-yl]-6-(3-hydroxyazetidin-1-yl)pyridine-3-carboxamide]"
9,< 100,"COC1CN(c2ccc(C(=O)Nc3cc(-c4nc5ccccc5[nH]4)[nH]n3)cn2)C1 [Compound A-65, N-[5-(1H-benzimidazol-2-yl)-1H-pyrazol-3-yl]-6-(3-methoxyazetidin-1-yl)pyridine-3-carboxamide]"
10,300 to 1000,"O=C(Nc1cc(-c2nc3ccccc3[nH]2)[nH]n1)c1ccc(N2CCCC(O)C2)nc1 (stereo not drawn) [Compound A-66, N-[5-(1H-benzimidazol-2-yl)-1H-pyrazol-3-yl]-6-(3-hydroxy-1-piperidyl)pyridine-3-carboxamide]"
11,< 100,"O=C(Nc1cc(-c2nc3ccccc3[nH]2)[nH]n1)c1ccc(N2CCC(CO)CC2)nc1 [Compound A-67, N-[5-(1H-benzimidazol-2-yl)-1H-pyrazol-3-yl]-6-[4-(hydroxymethyl)-1-piperidyl]pyridine-3-carboxamide]"
12,< 100,"O=C(Nc1cc(-c2nc3ccccc3[nH]2)[nH]n1)c1ccc(N2CCCC(CO)C2)nc1 (stereo not drawn) [Compound A-68, N-[5-(1H-benzimidazol-2-yl)-1H-pyrazol-3-yl]-6-[3-(hydroxymethyl)-1-piperidyl]pyridine-3-carboxamide]"
13,300 to 1000,"O=C1CN(c2ccc(C(=O)Nc3cc(-c4nc5ccccc5[nH]4)[nH]n3)cn2)CCN1 [Compound A-69, N-[5-(1H-benzimidazol-2-yl)-1H-pyrazol-3-yl]-6-(3-oxopiperazin-1-yl)pyridine-3-carboxamide]"
14,> 1000,"CCOC(=O)COc1ccc(C(=O)Nc2cc(-c3nc4ccccc4[nH]3)[nH]n2)cn1 [Compound A-70, ethyl 2-[[5-[[5-(1H-benzimidazol-2-yl)-1H-pyrazol-3-yl]carbamoyl]-2-pyridyl]oxy]acetate]"
15,300 to 1000,"COc1ccc(C(=O)Nc2n[nH]c(-c3nc4ccccc4[nH]3)c2Br)cc1Cl [Compound A-71, N-[5-(1H-benzimidazol-2-yl)-4-bromo-1H-pyrazol-3-yl]-3-chloro-4-methoxy-benzamide]"
16,> 1000,"O=C(O)COc1ccc(C(=O)Nc2cc(-c3nc4ccccc4[nH]3)[nH]n2)cc1Cl [Compound A-72, 2-[4-[[5-(1H-benzimidazol-2-yl)-1H-pyrazol-3-yl]carbamoyl]-2-chloro-phenoxy]acetic acid]"
17,300 to 1000,"COC[C@H](C)Nc1ccc(C(=O)Nc2cc(-c3nc4ccccc4[nH]3)[nH]n2)cn1 [Compound A-73, N-[5-(1H-benzimidazol-2-yl)-1H-pyrazol-3-yl]-6-[[(1S)-2-methoxy-1-methyl-ethyl]amino]pyridine-3-carboxamide]"

row,IC50 [nM],SMILES
1,> 1000,"COc1ccc(C(=O)Nc2n[nH]c(-c3nc4ccccc4[nH]3)c2Cl)cc1Cl [Compound A-74, N-[5-(1H-benzimidazol-2-yl)-4-chloro-1H-pyrazol-3-yl]-3-chloro-4-methoxy-benzamide]"
2,< 100,"COCCOc1ccc(C(=O)Nc2cc(-c3nc4ccccc4[nH]3)[nH]n2)cc1OC [Compound A-75, N-[5-(1H-benzimidazol-2-yl)-1H-pyrazol-3-yl]-3-methoxy-4-(2-methoxyethoxy)benzamide]"
3,> 1000,"COc1ccc(C(=O)Nc2n[nH]c(-c3nc4ccccc4[nH]3)c2F)cc1Cl [Compound A-76, N-[5-(1H-benzimidazol-2-yl)-4-fluoro-1H-pyrazol-3-yl]-3-chloro-4-methoxy-benzamide]"
4,100 to 300,"O=C(Nc1cc(-c2nc3ccccc3[nH]2)[nH]n1)c1ccc(NCCO)c(Cl)c1 [Compound A-78, N-[5-(1H-benzimidazol-2-yl)-1H-pyrazol-3-yl]-3-chloro-4-(2-hydroxy-ethylamino)benzamide]"
5,< 100,"COCCOc1ccc(C(=O)Nc2cc(-c3nc4cc(OC)ccc4[nH]3)[nH]n2)cc1Cl [Compound A-79, 3-chloro-N-[5-(5-methoxy-1H-benzimidazol-2-yl)-1H-pyrazol-3-yl]-4-(2-methoxyethoxy)benzamide]"
6,< 100,"O=C(Nc1cc(-c2nc3cc(F)ccc3[nH]2)[nH]n1)c1ccc(N2CCC(CO)CC2)nc1 [Compound A-80, N-[5-(5-fluoro-1H-benzimidazol-2-yl)-1H-pyrazol-3-yl]-6-[4-(hydroxymethyl)-1-piperidyl]pyridine-3-carboxamide]"
7,100 to 300,"O=C(Nc1cc(-c2nc3cc(F)ccc3[nH]2)[nH]n1)c1ccc(N2CCC(O)CC2)nc1 [Compound A-81, N-[5-(5-fluoro-1H-benzimidazol-2-yl)-1H-pyrazol-3-yl]-6-(4-hydroxy-1-piperidyl)pyridine-3-carboxamide]"
8,< 100,"O=C(Nc1cc(-c2nc3cc(F)ccc3[nH]2)[nH]n1)c1ccc(N2CCOCC2)nc1 [Compound A-82, N-[5-(5-fluoro-1H-benzimidazol-2-yl)-1H-pyrazol-3-yl]-6-morpholino-pyridine-3-carboxamide]"
9,< 100,"O=C(Nc1cc(-c2nc3cccc(F)c3[nH]2)[nH]n1)c1ccc(N2CCC(CO)CC2)nc1 [Compound A-83, N-[5-(7-fluoro-1H-benzimidazol-2-yl)-1H-pyrazol-3-yl]-6-[4-(hydroxymethyl)-1-piperidyl]pyridine-3-carboxamide]"
10,< 100,"O=C(Nc1cc(-c2nc3cccc(F)c3[nH]2)[nH]n1)c1ccc(N2CCOCC2)nc1 [Compound A-85, N-[5-(7-fluoro-1H-benzimidazol-2-yl)-1H-pyrazol-3-yl]-6-morpholino-pyridine-3-carboxamide]"
11,> 1000,"O=C(Nc1cc(-c2nc3cc(Cl)ccc3[nH]2)[nH]n1)c1ccc(N2CCC(CO)CC2)nc1 [Compound A-86, N-[5-(5-chloro-1H-benzimidazol-2-yl)-1H-pyrazol-3-yl]-6-[4-(hydroxymethyl)-1-piperidyl]pyridine-3-carboxamide]"
12,> 1000,"O=C(Nc1cc(-c2nc3cc(Cl)ccc3[nH]2)[nH]n1)c1ccc(N2CCC(O)CC2)nc1 [Compound A-87, N-[5-(5-chloro-1H-benzimidazol-2-yl)-1H-pyrazol-3-yl]-6-(4-hydroxy-1-piperidyl)pyridine-3-carboxamide]"
13,> 1000,"O=C(Nc1cc(-c2nc3cc(Cl)ccc3[nH]2)[nH]n1)c1ccc(N2CCOCC2)nc1 [Compound A-88, N-[5-(5-chloro-1H-benzimidazol-2-yl)-1H-pyrazol-3-yl]-6-morpholino-pyridine-3-carboxamide]"
14,> 1000,"O=C(Nc1cc(-c2nc3cc(Br)ccc3[nH]2)[nH]n1)c1ccc(N2CCC(CO)CC2)nc1 [Compound A-89, N-[5-(5-bromo-1H-benzimidazol-2-yl)-1H-pyrazol-3-yl]-6-[4-(hydroxymethyl)-1-piperidyl]pyridine-3-carboxamide]"
15,> 1000,"O=C(Nc1cc(-c2nc3cc(Br)ccc3[nH]2)[nH]n1)c1ccc(N2CCC(O)CC2)nc1 [Compound A-90, N-[5-(5-bromo-1H-benzimidazol-2-yl)-1H-pyrazol-3-yl]-6-(4-hydroxy-1-piperidyl)pyridine-3-carboxamide]"
16,> 1000,"O=C(Nc1cc(-c2nc3cc(Br)ccc3[nH]2)[nH]n1)c1ccc(N2CCOCC2)nc1 [Compound A-91, N-[5-(5-bromo-1H-benzimidazol-2-yl)-1H-pyrazol-3-yl]-6-morpholino-pyridine-3-carboxamide]"

# Reference: US20230416228A1 (Forkhead Biotherapeutics, Inc., priority 2020, published 2023)
